Laboratory results reported in PubChem BioAssay (NCI).
“And” between values parts separate entries of the source, which are not always exact repeats. Identical values can stand only once.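 Test compounds were applied to cells in 96-well plates for 48 hours at 5 doses. The concentration for 50% growth inhibition is given as GI50. Definition used: TGI = concentration required for complete inhibition of growth.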

Key:
Assay in all cases: NCI anticancer screen, dose series, 48 h
A498 renal = test system: A498 renal
ACHN renal = test system: ACHN renal
CCRF-CEM leukemia = test system: CCRF-CEM leukemia
HOP-92 NSCLC = test system: HOP-92 NSCLC
K-562 leukemia = test system: K-562 leukemia
MCF7 breast = test system: MCF7 breast
NCI/ADR-RES ovarian = test system: NCI/ADR-RES ovarian
SK-MEL-2 melanoma = test system: SK-MEL-2 melanoma
SW-620 colon = test system: SW-620 colon
UACC-257 melanoma = test system: UACC-257 melanoma
OVCAR-4 ovarian = test system: OVCAR-4 ovarian

Structure (SMILES) | TGI (A498 renal) | TGI (ACHN renal) [µM] | TGI (CCRF-CEM leukemia) | TGI (HOP-92 NSCLC) | TGI (K-562 leukemia) | TGI (MCF7 breast) | TGI (NCI/ADR-RES ovarian) | TGI (SK-MEL-2 melanoma) | TGI (SW-620 colon) | TGI (UACC-257 melanoma) | TGI (OVCAR-4 ovarian) | GI50 (A498 renal) [µM] | GI50 (CCRF-CEM leukemia) | GI50 (HOP-92 NSCLC) [µM] | GI50 (K-562 leukemia) [µM] | GI50 (MCF7 breast) [µM] | GI50 (OVCAR-4 ovarian) [µM] | GI50 (SK-MEL-2 melanoma) [µM] | GI50 (SW-620 colon) [µM] | GI50 (UACC-257 melanoma) [µM]
COC(=O)[C@H]1CO[C@@H](C(C)(C)C)N1C(=O)N1C=CC(=O)C[C@@H]1C | > 100 µM | > 100 | > 100 µM | > 100 µM | > 100 µM | > 100 µM | > 100 µM | > 100 µM | > 100 µM | > 100 µM | – | – | – | – | – | – | – | – | – | –
CC(=O)O[C@H]1C(=O)[C@]2(C)[C@@H](OC(=O)OCCC(O)CO)C[C@H]3OC[C@@]3(OC(C)=O)[C@H]2[C@H](OC(=O)c2ccccc2)[C@]2(O)C[C@H](OC(=O)[C@H](O)[C@@H](NC(=O)c3ccccc3)c3ccccc3)C(C)=C1C2(C)C (some centres undefined) | 21.6 µM | > 100 | 0.0462 µM | 25.2 µM | > 100 µM | > 35 µM | > 100 µM | 46.8 µM | > 46.4 µM | 21.4 µM | > 94.3 µM | – | – | – | – | – | – | – | – | –
CN1CCN([C@H]2C[C@H]3[C@@H]4CC=C5C[C@@H](O)CC[C@]5(C)[C@H]4CC[C@]3(C)C2=O)CC1 | > 100 µM | > 100 | > 100 µM | > 100 µM | > 100 µM | > 100 µM | > 100 µM | > 100 µM | > 100 µM | > 100 µM | > 100 µM | – | – | – | – | – | – | – | – | –
O=C1/C(=C/c2ccc(O)cc2)CC/C1=C\c1ccc(O)cc1 | > 100 µM | > 100 | 6.74 µM | > 100 µM | > 100 µM | > 100 µM | > 100 µM | > 100 µM | > 100 µM | > 100 µM | > 100 µM | – | – | – | – | – | – | – | – | –
CCC[C@@H](O)C[C@@H]1CCC[C@H](C[C@@H](O)CC)N1C | > 100 µM | > 100 | > 100 µM | 5.06 µM | > 100 µM | > 100 µM | > 100 µM | > 100 µM | > 100 µM | > 100 µM | > 100 µM | – | – | – | – | – | – | – | – | –
Cc1c2cnccc2c(C)c2c1c1ccccc1n2CCCN | 1.62 µM and 1.15 µM | 0.893 | 0.75 µM and 0.215 µM | 1.22 µM and 2.14 µM | 0.794 µM and 0.598 µM | 1.19 µM and 0.277 µM | 1.04 µM and 1.16 µM | 1.59 µM and 1.42 µM | 0.878 µM and 0.211 µM | 2.32 µM and 1.92 µM | 0.665 µM and 0.246 µM | 0.468 | 0.0966 µM and 0.0188 µM | 0.776 | 0.0402 | 0.0474 | 0.0661 | 0.348 | 0.035 | 0.633
Cc1cc(=O)[nH]c(NN2C(Cl)C(=O)C2c2ccccc2O)n1 (centres undefined) | > 100 µM | > 100 | > 100 µM | 32.4 µM | > 100 µM | > 100 µM | 40.4 µM | > 100 µM | > 100 µM | > 100 µM | > 100 µM | – | – | – | – | – | – | – | – | –
C=C1c2nc3ccccc3n2C=C(c2ccccc2)N1c1ccc([N+](=O)[O-])cc1 | 42 µM | 12.8 | > 81.3 µM | 21.9 µM | 58.2 µM | > 37.9 µM | 44.5 µM | 56.3 µM | 59 µM | 63.4 µM | 2.29 µM | – | – | – | – | – | – | – | – | –
CCc1ccc(CCN2CCCCC2)nc1 | > 100 µM | > 100 | > 100 µM | > 100 µM | > 100 µM | > 100 µM | > 100 µM | > 100 µM | > 100 µM | > 100 µM | > 100 µM | – | – | – | – | – | – | – | – | –
O=C1OCC(O)=C1C(c1ccc(Cl)cc1)c1cc2c(cc1O)OCO2 (centres undefined) | > 100 µM | > 100 | > 100 µM | > 100 µM | > 100 µM | > 100 µM | > 100 µM | > 100 µM | > 100 µM | – | > 100 µM | – | – | – | – | – | – | – | – | –
Cc1ccccc1-n1c(=O)c2ncn(CCCl)c2n(-c2ccccc2C)c1=S | > 100 µM | > 100 | > 100 µM | > 100 µM | > 100 µM | > 100 µM | > 100 µM | > 100 µM | > 100 µM | > 100 µM | > 100 µM | – | – | – | – | – | – | – | – | –
CCOc1cc2c(cc1O)/C(=N\OC)C[C@@H]1[C@@H]2CC[C@]2(C)[C@@H](O)CC[C@@H]12 | 0.944 µM | > 100 | > 100 µM | > 96.6 µM | > 100 µM | > 37.6 µM | 0.186 µM | 4.42 µM | > 35.3 µM | > 48.1 µM | > 100 µM | – | – | – | – | – | – | – | – | –
CC(C)c1ccc(/C=C2/C=C(c3ccc4ccccc4c3)OC2=O)cc1 | > 100 µM | > 100 | 20 µM | > 100 µM | > 85.3 µM | > 100 µM | > 100 µM | 39.6 µM | > 100 µM | 59.2 µM | > 100 µM | – | – | – | – | – | – | – | – | –
CC1=CC2C(O1)C1C(=O)C=CC(=O)C1=CC2[N+](=O)[O-] (centres undefined) | 40.6 µM | 12.8 | > 23.7 µM | 6.2 µM | > 100 µM | 14.3 µM | > 77.9 µM | 57.2 µM | > 24.3 µM | 33.7 µM | 31.6 µM | – | – | – | – | – | – | – | – | –
C(/c1ccco1)=c1/nc(-c2ccccc2)n2c1nc1ccccc12 | > 100 µM | > 100 | 46.8 µM | > 100 µM | 68.3 µM | > 100 µM | > 100 µM | > 100 µM | > 100 µM | > 100 µM | > 100 µM | – | – | – | – | – | – | – | – | –
Cc1cc(O)c2c(=O)c3ccccc3[nH]c2c1 | 82.6 µM | > 100 | > 100 µM | > 100 µM | – | > 100 µM | > 100 µM | > 100 µM | > 100 µM | 54.2 µM | 75.8 µM | – | – | – | – | – | – | – | – | –
COc1cc2c(cc1OC)C(c1ccccc1CCCCl)=NCC2 | > 100 µM | > 100 | > 100 µM | > 100 µM | > 100 µM | > 100 µM | > 100 µM | > 100 µM | > 100 µM | > 100 µM | > 100 µM | – | – | – | – | – | – | – | – | –
CC(C)CC(=O)OC[n+]1ccc(-c2c(COC(=O)NC(C)C)c(COC(=O)NC(C)C)c3n2CCC3)cc1 | > 100 µM | > 100 | > 100 µM | > 100 µM | > 100 µM | > 100 µM | > 100 µM | > 100 µM | > 100 µM | > 100 µM | > 100 µM | – | – | – | – | – | – | – | – | –
